Laboratory results published in patent US20240024488A1, “COMPOUNDS AND USES THEREOF” (Foghorn Therapeutics Inc., priority 2020, published 2024).

How the values were obtained:
[1] = molecular target: T1, HiBit-BRM fusion protein (Homo sapiens, UniProt P51531); test: HiBiT-BRM cell-based degradation assay (Nano-Glo HiBiT Lytic Detection, 24 h); conditions: HeLa cell line expressing HiBiT-BRM; for DC50: read-out: BRM HiBit Degradation IC50
T1 construct: expressed in transfected cells
Outline: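 Percent BRM loss was derived from HiBiT luminescence relative to DMSO-treated cells and cells given 2 μM of a known BRM/BRG1 degrader. Treatment lasted 24 h in HiBiT-BRM HeLa cells, with a top final concentration of 30 μM.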

[2] = molecular target: T2, HiBit-BRG1 fusion protein (Homo sapiens, UniProt P51532); test: HiBiT-BRG1 cell-based degradation assay (Nano-Glo HiBiT Lytic Detection, 24 h); conditions: HeLa cell line expressing HiBit-BRG1 and LgBit; for Dmax: read-out: BRG1 HiBit Degradation Maximum (%); for DC50: read-out: BRMG1 HiBit Degradation IC50
T2 construct: expressed in transfected cells
T2 sequence (P51532 whole entry, the tested form may be a part): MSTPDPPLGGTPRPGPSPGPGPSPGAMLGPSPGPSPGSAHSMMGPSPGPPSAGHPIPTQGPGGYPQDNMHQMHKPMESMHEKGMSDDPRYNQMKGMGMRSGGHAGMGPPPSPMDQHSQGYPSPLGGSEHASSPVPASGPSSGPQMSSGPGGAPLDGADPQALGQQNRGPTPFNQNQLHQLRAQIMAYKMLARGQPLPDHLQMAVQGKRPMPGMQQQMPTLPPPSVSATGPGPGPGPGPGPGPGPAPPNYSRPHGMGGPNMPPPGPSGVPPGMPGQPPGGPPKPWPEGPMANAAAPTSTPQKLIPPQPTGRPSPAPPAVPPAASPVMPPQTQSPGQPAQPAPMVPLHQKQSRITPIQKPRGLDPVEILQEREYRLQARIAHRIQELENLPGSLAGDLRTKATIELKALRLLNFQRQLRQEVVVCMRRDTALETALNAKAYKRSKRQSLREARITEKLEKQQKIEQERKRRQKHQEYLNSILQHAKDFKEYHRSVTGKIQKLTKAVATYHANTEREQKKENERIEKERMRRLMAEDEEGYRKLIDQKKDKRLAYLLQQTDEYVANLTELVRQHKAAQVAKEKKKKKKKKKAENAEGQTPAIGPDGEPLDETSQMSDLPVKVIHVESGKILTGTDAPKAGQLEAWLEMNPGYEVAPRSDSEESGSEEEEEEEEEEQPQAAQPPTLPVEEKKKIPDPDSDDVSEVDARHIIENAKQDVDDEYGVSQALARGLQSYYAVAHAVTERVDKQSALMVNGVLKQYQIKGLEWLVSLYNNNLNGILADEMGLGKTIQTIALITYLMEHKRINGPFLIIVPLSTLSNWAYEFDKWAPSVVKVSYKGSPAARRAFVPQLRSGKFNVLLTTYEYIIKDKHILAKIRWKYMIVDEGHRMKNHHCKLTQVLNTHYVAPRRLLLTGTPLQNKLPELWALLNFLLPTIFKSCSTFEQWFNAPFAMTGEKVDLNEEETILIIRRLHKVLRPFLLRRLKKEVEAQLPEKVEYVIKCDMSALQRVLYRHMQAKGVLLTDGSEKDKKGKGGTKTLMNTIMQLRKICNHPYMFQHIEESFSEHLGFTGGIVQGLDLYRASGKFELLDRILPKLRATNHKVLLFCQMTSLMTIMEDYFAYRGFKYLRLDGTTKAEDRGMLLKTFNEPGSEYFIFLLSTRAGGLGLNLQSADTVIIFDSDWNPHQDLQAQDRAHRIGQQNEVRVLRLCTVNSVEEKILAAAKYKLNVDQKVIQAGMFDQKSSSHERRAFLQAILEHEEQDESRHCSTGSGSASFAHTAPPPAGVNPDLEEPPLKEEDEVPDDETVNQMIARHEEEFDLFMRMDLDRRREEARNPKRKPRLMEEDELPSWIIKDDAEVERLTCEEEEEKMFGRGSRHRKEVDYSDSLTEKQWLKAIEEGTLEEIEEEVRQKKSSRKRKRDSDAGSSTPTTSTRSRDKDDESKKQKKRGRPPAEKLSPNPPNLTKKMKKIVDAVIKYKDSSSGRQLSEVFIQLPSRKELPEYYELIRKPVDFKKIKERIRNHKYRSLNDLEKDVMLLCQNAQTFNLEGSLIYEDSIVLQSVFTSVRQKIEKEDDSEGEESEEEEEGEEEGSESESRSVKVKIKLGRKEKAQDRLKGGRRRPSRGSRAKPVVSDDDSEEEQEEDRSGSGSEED
Outline: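 HeLa cells stably expressing HiBiT-BRG1 plus LgBit, 5000/well, treated 24 h, then lysed with Nano-Glo HiBiT lytic reagent and luminescence read. % degradation normalised between DMSO (high control) and 2 μM reference BRM/BRG1 degrader (low control).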

T1 sequence (P51531 whole entry, the tested form may be a part): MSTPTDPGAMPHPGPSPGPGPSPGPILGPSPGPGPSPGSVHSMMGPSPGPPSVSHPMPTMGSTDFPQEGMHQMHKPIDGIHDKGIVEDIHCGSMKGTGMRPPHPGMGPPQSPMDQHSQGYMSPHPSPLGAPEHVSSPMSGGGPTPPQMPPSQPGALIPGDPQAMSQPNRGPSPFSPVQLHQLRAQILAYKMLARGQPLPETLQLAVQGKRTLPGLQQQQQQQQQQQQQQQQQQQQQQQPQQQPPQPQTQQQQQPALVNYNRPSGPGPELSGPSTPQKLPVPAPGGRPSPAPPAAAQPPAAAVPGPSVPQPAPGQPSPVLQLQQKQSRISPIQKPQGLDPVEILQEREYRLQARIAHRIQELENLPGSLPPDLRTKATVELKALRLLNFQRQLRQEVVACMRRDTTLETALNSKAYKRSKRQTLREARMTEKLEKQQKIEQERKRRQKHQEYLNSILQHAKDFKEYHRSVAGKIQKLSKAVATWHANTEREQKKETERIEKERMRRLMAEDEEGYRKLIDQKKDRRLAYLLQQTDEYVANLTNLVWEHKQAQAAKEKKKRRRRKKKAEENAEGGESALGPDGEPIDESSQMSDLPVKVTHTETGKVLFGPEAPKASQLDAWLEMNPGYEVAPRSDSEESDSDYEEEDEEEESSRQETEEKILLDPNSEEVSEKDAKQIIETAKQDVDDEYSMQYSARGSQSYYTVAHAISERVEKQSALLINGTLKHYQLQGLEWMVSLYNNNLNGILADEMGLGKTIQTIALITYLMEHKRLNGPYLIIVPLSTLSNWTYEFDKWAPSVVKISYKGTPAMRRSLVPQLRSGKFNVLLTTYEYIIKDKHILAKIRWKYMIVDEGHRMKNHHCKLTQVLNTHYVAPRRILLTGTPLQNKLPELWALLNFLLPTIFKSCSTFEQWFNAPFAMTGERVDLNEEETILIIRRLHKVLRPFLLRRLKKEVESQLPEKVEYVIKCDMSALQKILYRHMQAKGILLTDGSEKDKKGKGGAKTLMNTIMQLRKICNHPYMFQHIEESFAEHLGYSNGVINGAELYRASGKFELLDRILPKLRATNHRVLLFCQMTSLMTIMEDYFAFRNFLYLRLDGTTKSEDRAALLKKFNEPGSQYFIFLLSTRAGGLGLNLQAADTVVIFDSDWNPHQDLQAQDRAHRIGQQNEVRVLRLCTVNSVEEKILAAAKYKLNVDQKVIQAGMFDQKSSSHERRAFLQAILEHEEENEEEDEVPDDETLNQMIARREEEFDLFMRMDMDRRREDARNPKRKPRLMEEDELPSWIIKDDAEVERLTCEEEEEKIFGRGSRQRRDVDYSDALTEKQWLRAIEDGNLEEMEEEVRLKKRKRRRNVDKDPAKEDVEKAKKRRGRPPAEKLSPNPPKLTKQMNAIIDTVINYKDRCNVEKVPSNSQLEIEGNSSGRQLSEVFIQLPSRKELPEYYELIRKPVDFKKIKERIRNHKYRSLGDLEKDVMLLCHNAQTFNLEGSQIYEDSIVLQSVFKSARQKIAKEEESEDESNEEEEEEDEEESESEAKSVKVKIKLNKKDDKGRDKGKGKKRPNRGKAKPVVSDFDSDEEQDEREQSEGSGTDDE

Cc1ncsc1-c1ccc([C@H](C)NC(=O)[C@@H]2C[C@@H](O)CN2C(=O)[C@@H](c2cc(OCCNC3CC[C@]34C[C@H](c3cc5cc(-c6ccccc6O)nnc5[nH]3)C4)no2)C(C)C)cc1 (mixture of isomers) [Compound 132, (2S,4R)-4-hydroxy-1-((R)-2-(3-(2-(((1S,4s,6S)-6-(3-(2-hydroxyphenyl)-7H-pyrrolo[2,3-c]pyridazin-6-yl)spiro[3.3]heptan-1-yl)amino)ethoxy)isoxazol-5-yl)-3-methylbutanoyl)-N-((S)-1-(4-(4-methylthiazol-5-yl)phenyl)ethyl)pyrrolidine-2-carboxamide]
BRM HiBit Degradation Maximum (%) [1]: A (“A” indicates maximum degradation ≥ 75%)
DC50 [1]: > 10 nM
Dmax [2]: < 50%

Cc1ncsc1-c1ccc([C@H](C)NC(=O)[C@@H]2C[C@@H](O)CN2C(=O)[C@@H](c2cc(OCCNC3CC[C@]34C[C@@H](c3cc5cc(-c6ccccc6O)nnc5[nH]3)C4)no2)C(C)C)cc1 (mixture of isomers) [Compound 133, (2S,4R)-4-hydroxy-1-((R)-2-(3-(2-(((1S,4r,6R)-6-(3-(2-hydroxyphenyl)-7H-pyrrolo[2,3-c]pyridazin-6-yl)spiro[3.3]heptan-1-yl)amino)ethoxy)isoxazol-5-yl)-3-methylbutanoyl)-N-((S)-1-(4-(4-methylthiazol-5-yl)phenyl)ethyl)pyrrolidine-2-carboxamide]
BRM HiBit Degradation Maximum (%) [1]: A (“A” indicates maximum degradation ≥ 75%)
DC50 [1]: > 10 nM
Dmax [2]: > 50%
DC50 [2]: > 100 nM

Cc1ncsc1-c1ccc([C@H](C)NC(=O)[C@@H]2C[C@@H](O)CN2C(=O)[C@@H](c2cc(OCCN3CC(C4(C)CNc5nnc(-c6ccccc6O)cc54)C3)no2)C(C)C)cc1 (mixture of isomers) [Compound 134]
BRM HiBit Degradation Maximum (%) [1]: C (“C” indicates maximum degradation < 50%)
Dmax [2]: < 50%

Cc1ncsc1-c1ccc([C@H](C)NC(=O)[C@@H]2C[C@@H](O)CN2C(=O)[C@@H](c2cc(C3CN(Cc4cc5cc(-c6ccccc6O)nnc5[nH]4)C3)no2)C(C)C)cc1 (racemic) [Compound 138, (2S,4R)-4-hydroxy-1-((R)-2-(3-(1-((3-(2-hydroxyphenyl)-7H-pyrrolo[2,3-c]pyridazin-6-yl)methyl)azetidin-3-yl)isoxazol-5-yl)-3-methylbutanoyl)-N-((S)-1-(4-(4-methylthiazol-5-yl)phenyl)ethyl)pyrrolidine-2-carboxamide]
BRM HiBit Degradation Maximum (%) [1]: A (“A” indicates maximum degradation ≥ 75%)
DC50 [1]: > 10 nM
Dmax [2]: < 50%

Cc1ncsc1-c1ccc([C@H](C)NC(=O)[C@@H]2C[C@@H](O)CN2C(=O)[C@@H](c2cc(OCCN3CC(Oc4c[nH]c5nnc(-c6ccccc6O)cc45)C3)no2)C(C)C)cc1 (racemic) [Compound 139, (2S,4R)-4-hydroxy-1-[(2R)-2-{3-[2-(3-{[3-(2-hydroxyphenyl)-7H-pyrrolo[2,3-c]pyridazin-5-yl]oxy}azetidin-1-yl)ethoxy]-1,2-oxazol-5-yl}-3-methylbutanoyl]-N-[(1S)-1-[4-(4-methyl-1,3-thiazol-5-yl)phenyl]ethyl]pyrrolidine-2-carboxamide]
BRM HiBit Degradation Maximum (%) [1]: B (“B” indicates maximum degradation ≥ 50%)
DC50 [1]: > 100 nM
Dmax [2]: < 50%

Cc1ncsc1-c1ccc([C@H](C)NC(=O)[C@@H]2C[C@@H](O)CN2C(=O)[C@@H](c2cc(OCCN3CC(c4cc5cc(-c6ccccc6O)nnc5n4C)C3)no2)C(C)C)cc1 (racemic) [Compound 140, (2S,4R)-4-hydroxy-1-((R)-2-(3-(2-(3-(3-(2-hydroxyphenyl)-7-methyl-7H-pyrrolo[2,3-c]pyridazin-6-yl)azetidin-1-yl)ethoxy)isoxazol-5-yl)-3-methylbutanoyl)-N-((S)-1-(4-(4-methylthiazol-5-yl)phenyl)ethyl)pyrrolidine-2-carboxamide]
BRM HiBit Degradation Maximum (%) [1]: C (“C” indicates maximum degradation < 50%)
Dmax [2]: < 50%

Cc1ncsc1-c1ccc([C@H](C)NC(=O)[C@@H]2C[C@@H](O)CN2C(=O)[C@@H](c2cc(OCCN3C[C@@H]4[C@H](C3)[C@H]4c3cc4cc(-c5cccc(F)c5O)nnc4[nH]3)no2)C(C)C)cc1 (racemic) [Compound 142, (2S,4R)-1-((R)-2-(3-(2-((1R,5S,6R)-6-(3-(3-fluoro-2-hydroxyphenyl)-7H-pyrrolo[2,3-c]pyridazin-6-yl)-3-azabicyclo[3.1.0]hexan-3-yl)ethoxy)isoxazol-5-yl)-3-methylbutanoyl)-4-hydroxy-N-((S)-1-(4-(4-methylthiazol-5-yl)phenyl)ethyl)pyrrolidine-2-carboxamide]
BRM HiBit Degradation Maximum (%) [1]: A (“A” indicates maximum degradation ≥ 75%)
DC50 [1]: > 10 nM
Dmax [2]: < 50%

Cc1ncsc1-c1ccc([C@H](C)NC(=O)[C@@H]2C[C@@H](O)CN2C(=O)[C@@H](c2cc(OCCN3CC(c4cc5cc(-c6ccccc6O)nnc5n4C(F)F)C3)no2)C(C)C)cc1 (racemic) [Compound 148, (2S,4R)-1-[(2R)-2-[3-(2-{3-[7-(difluoromethyl)-3-(2-hydroxyphenyl)pyrrolo[2,3-c]pyridazin-6-yl]azetidin-1-yl}ethoxy)-1,2-oxazol-5-yl]-3-methylbutanoyl]-4-hydroxy-N-[(1S)-1-[4-(4-methyl-1,3-thiazol-5-yl)phenyl]ethyl]pyrrolidine-2-carboxamide]
BRM HiBit Degradation Maximum (%) [1]: C (“C” indicates maximum degradation < 50%)
Dmax [2]: < 50%

Cc1ncsc1-c1ccc([C@H](C)NC(=O)[C@@H]2C[C@@H](O)CN2C(=O)[C@H](c2cc(N(C)CCN3CCc4[nH]c5nnc(-c6ccccc6O)cc5c4C3)no2)C(C)C)cc1 (racemic) [Compound 149, (2S,4R)-4-hydroxy-1-((S)-2-(3-((2-(3-(2-hydroxyphenyl)-5,7,8,9-tetrahydro-6H-pyrido[3′,4′:4,5]pyrrolo[2,3-c]pyridazin-6-yl)ethyl)(methyl)amino)isoxazol-5-yl)-3-methylbutanoyl)-N-((S)-1-(4-(4-methylthiazol-5-yl)phenyl)ethyl)pyrrolidine-2-carboxamide]
BRM HiBit Degradation Maximum (%) [1]: C (“C” indicates maximum degradation < 50%)
Dmax [2]: < 50%

Cc1ncsc1-c1ccc([C@H](C)NC(=O)[C@@H]2C[C@@H](O)CN2C(=O)[C@@H](c2cc(OCCN3CCC34CC(c3c[nH]c5nnc(-c6ccccc6O)cc35)C4)no2)C(C)C)cc1 (mixture of isomers) [Compound 151, (2S,4R)-4-hydroxy-1-((R)-2-(3-(2-(6-(3-(2-hydroxyphenyl)-7H-pyrrolo[2,3-c]pyridazin-5-yl)-1-azaspiro[3.3]heptan-1-yl)ethoxy)isoxazol-5-yl)-3-methylbutanoyl)-N-((S)-1-(4-(4-methylthiazol-5-yl)phenyl)ethyl)pyrrolidine-2-carboxamide]
BRM HiBit Degradation Maximum (%) [1]: A (“A” indicates maximum degradation ≥ 75%)
DC50 [1]: > 100 nM
Dmax [2]: < 50%

Cc1ncsc1-c1ccc([C@H](C)NC(=O)[C@@H]2C[C@@H](O)CN2C(=O)[C@@H](c2cc(OCCN3CCC34CC(c3cc5cc(-c6ccccc6O)nnc5[nH]3)C4)no2)C(C)C)cc1 (mixture of isomers) [Compound 161, (2S,4R)-4-hydroxy-1-((R)-2-(3-(2-(6-(3-(2-hydroxyphenyl)-7H-pyrrolo[2,3-c]pyridazin-6-yl)-1-azaspiro[3.3]heptan-1-yl)ethoxy)isoxazol-5-yl)-3-methylbutanoyl)-N-((S)-1-(4-(4-methylthiazol-5-yl)phenyl)ethyl)pyrrolidine-2-carboxamide]
BRM HiBit Degradation Maximum (%) [1]: A (“A” indicates maximum degradation ≥ 75%)
DC50 [1]: > 10 nM
Dmax [2]: > 75%
DC50 [2]: > 100 nM

Cc1ncsc1-c1ccc([C@H](C)NC(=O)[C@@H]2C[C@@H](O)CN2C(=O)[C@@H](c2cc(OCCN3CC(c4[nH]c5nnc(-c6ccccc6O)cc5c4C4CC4)C3)no2)C(C)C)cc1 (racemic) [Compound 164, (2S,4R)-1-((R)-2-(3-(2-(3-(5-cyclopropyl-3-(2-hydroxyphenyl)-7H-pyrrolo[2,3-c]pyridazin-6-yl)azetidin-1-yl)ethoxy)isoxazol-5-yl)-3-methylbutanoyl)-4-hydroxy-N-((S)-1-(4-(4-methylthiazol-5-yl)phenyl)ethyl)pyrrolidine-2-carboxamide]
BRM HiBit Degradation Maximum (%) [1]: A (“A” indicates maximum degradation ≥ 75%)
DC50 [1]: > 10 nM
Dmax [2]: > 75%
DC50 [2]: > 100 nM

Cc1ncsc1-c1ccc([C@H](C)NC(=O)[C@@H]2C[C@@H](O)CN2C(=O)[C@@H](c2cc(OCCN3CC4(CNc5nnc(-c6ccccc6O)cc54)C3)no2)C(C)C)cc1 (racemic) [Compound 177, (2S,4R)-4-hydroxy-1-((R)-2-(3-(2-(3′-(2-hydroxyphenyl)-6′,7′-dihydrospiro[azetidine-3,5′-pyrrolo[2,3-c]pyridazin]-1-yl)ethoxy)isoxazol-5-yl)-3-methylbutanoyl)-N-((S)-1-(4-(4-methylthiazol-5-yl)phenyl)ethyl)pyrrolidine-2-carboxamide]
BRM HiBit Degradation Maximum (%) [1]: B (“B” indicates maximum degradation ≥ 50%)
DC50 [1]: > 1000 nM
Dmax [2]: < 50%

Cc1ncsc1-c1ccc([C@H](C)NC(=O)[C@@H]2C[C@@H](O)CN2C(=O)[C@@H](c2cc(N(C)CCN3CCc4[nH]c5nnc(-c6ccccc6O)cc5c4C3)no2)C(C)C)cc1 (racemic) [Compound 182, (2S,4R)-4-hydroxy-1-((R)-2-(3-((2-(3-(2-hydroxyphenyl)-5,7,8,9-tetrahydro-6H-pyrido[3′,4′:4,5]pyrrolo[2,3-c]pyridazin-6-yl)ethyl)(methyl)amino)isoxazol-5-yl)-3-methylbutanoyl)-N-((S)-1-(4-(4-methylthiazol-5-yl)phenyl)ethyl)pyrrolidine-2-carboxamide]
BRM HiBit Degradation Maximum (%) [1]: C (“C” indicates maximum degradation < 50%)
Dmax [2]: < 50%
